# Laboratory results from patent US20070202166A1, “Method for increasing the rate and consistency of bioavailability of supplemental dietary ingredients” (priority 2006, published 2007).
# “Also recorded” adds a separate entry of the source.
# Key:
# Format in all cases: physicochemical
# [1] = Kinetic dissolution experiment: 1 g in 50 mL water, filtered at 1 and 5 minutes
# Description: In order to expand on the results of the aforenoted experiments, a kinetic experiment was conducted to examine the change in the dissolution rate over short time periods.
# 1 g of sample was added to 50 mL water in a flask with a magnetic stir bar on a stirrer set at constant speed. Separate samples were filtered at 1 and 5 minutes. The pre-weighed filter papers (Whateman 41, particle retention 20-25 μm) were allowed to dry and the amount of sample remaining on the filter paper was determined.
# [2] = Time to dissolve in stirred water, estimated by visual inspection; conditions: for Time taken to dissolve: 100 mL water, constant stirring
# Description: In order to determine the effect of fine-milling on the dissolution rate, initial testing was performed to examine the rate of dissolution of common supplemental dietary ingredients. For the purposes of this disclosure, the term “regular” as used herein makes reference to non-fine-milled particles. 100 mL of water was placed into a 250 mL beaker and a magnetic stirrer bar was added to the beaker. The beaker was then placed on a magnetic stirrer was set to constant speed. […] The time required to dissolve was estimated by visual inspection. Equal amounts of the fine-milled ingredients were then added to the water and the time required to dissolve was estimated by visual inspection.
# [3] = Solubility test: powder added to stirred water until saturated, gravity filtered, dry residue on filter paper weighed; conditions: Whatman 41 filter paper, particle retention 20-25 μm
# Description: In order to test the capacity of fine-milling to improve the rate bioavailability of substances, a simple test was performed. The test was conceived to mimic various elements involved in the processes of oral administration of a nutritional supplement. The key parameters involved were rate of dissolution and solubility, as it is understood that an ingested nutrient must be dissolved or reduced to a bio-transportable size in order to be utilized biochemically by the body.
# The rates of dissolution and solubility of regular common nutritional supplements were compared to fine-milled versions within a fixed time. […] 100 mL of water was added to a 250 mL beaker and a magnetic stirring bar was placed in the beaker. The beaker was placed on a magnetic stirrer and stirred with low speed. 1 g of a given supplemental dietary ingredient powder was added incrementally to the beaker with the stirring speed constant until the solution visually appeared saturated. The solution was filtered by gravity through a pre-weighed filter paper (Whatman 41, particle retention 20-25 μm). […]
# The ‘Fold Change’ represents the change in the amount of substance unable to pass through the filter as calculated by the amount of unfiltered regular substance divided by the amount of unfiltered fine-milled substance and represents the potential theoretical improvement in bioavailability.
smiles,measurement,setting,value
CN(CC(=O)O)C(=N)N.O [Creatine Monohydrate],weight of unfiltered sample,"[1]; Fine-milled, 1-minute interval, Monohydrate",0.33 g
same,weight of unfiltered sample,"[1]; Fine-milled, 1-minute interval, listed as creatine, Monohydrate",0.32 g
same,weight of unfiltered sample,"[1]; Fine-milled, 5-minute interval",0.27 g
same,weight of unfiltered sample,"[1]; Regular, 1-minute interval, listed as Creatine monohydrate, Monohydrate",0.32 g
same,weight of unfiltered sample,"[1]; Regular, 1-minute interval, listed as creatine, Monohydrate",0.33 g
same,weight of unfiltered sample,"[1]; Regular, 5-minute interval",0.40 g
same,Time taken to dissolve,"[2]; Fine-milled powder, same amount as regular",<5 min
same,"Rate of dissolving, fine-milled compared with regular (in words)",[2]; Monohydrate,appeared to dissolved at the same rate in both the fine-milled and regular formats; also recorded: did not display a difference dependent on particle size
same,Time taken to dissolve,[2]; Regular (non-milled) powder,<5 min
same,Dry Powder On Filter,[3]; Fine-milled powder,0.01 g
same,Dry Powder On Filter,[3]; Regular powder,0.19 g
